Measurements reported in patent publication US9221834B2 (Merck Sharp & Dohme Corp., priority 2010, dated 2015).

biological target: T1, recombinant CETP (rCETP) (Homo sapiens, UniProt P11597); experiment: RTA assay using recombinant CETP (2% RTA); type: biochemical; settings: RTA assay in 2% human serum; read-out: IC50
T1 sequence (P11597 18-493): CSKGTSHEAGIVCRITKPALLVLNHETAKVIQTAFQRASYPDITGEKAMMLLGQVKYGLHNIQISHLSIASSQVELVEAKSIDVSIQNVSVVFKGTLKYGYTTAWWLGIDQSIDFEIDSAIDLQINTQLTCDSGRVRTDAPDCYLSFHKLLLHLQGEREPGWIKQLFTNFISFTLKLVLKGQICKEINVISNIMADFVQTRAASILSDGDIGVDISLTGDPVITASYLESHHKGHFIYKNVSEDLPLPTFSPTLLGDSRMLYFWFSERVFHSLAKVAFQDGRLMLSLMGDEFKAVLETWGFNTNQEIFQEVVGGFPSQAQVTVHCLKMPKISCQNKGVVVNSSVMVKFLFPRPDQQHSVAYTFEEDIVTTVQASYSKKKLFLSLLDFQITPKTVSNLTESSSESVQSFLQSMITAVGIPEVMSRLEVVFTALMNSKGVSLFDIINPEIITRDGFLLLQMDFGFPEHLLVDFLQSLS
Experimental: In Vitro Radioactive Assays of CETP-Catalyzed CE and TG Transfer (RTA Assay)
Reagents and sources are: [3H] cholesteryl oleate (GE #TRK.886), [3H]
Both assays measure the transfer of [3H] cholesteryl oleate or [3H]triolein from exogenous LDL to HDL.
After a brief vortex, the solution is sonicated until clear and mixed with 20 mL of fresh human serum. The mixture is incubated overnight at 37° C. […] Once isolated the particles are dialyzed 3× in CETP buffer (50 mM Tris, pH 7.4, 100 mM NaCl, 1 mM EDTA). Human HDL is purchased from Intracel and used as the acceptor particles.
Transfer assays are performed in a 96-well v-bottom polypropylene plate. […] 1 μL of each test compound diluted in DMSO is added to 47 μL of assay cocktail per well and incubated at 37° C. for 1 hour. To initiate the transfer reaction, 2 μL radiolabeled LDL is added. After an additional 60 min of incubation at 37° C., the transfer action is terminated by precipitation of LDL with an equal volume of 20% W/V PEG 8000. The plates are centrifuged at 2000 rpm for 30 minutes at 4° C. A 40 μL aliquot of the HDL-containing supernatant is transferred to a Packard Optiplate with 200 μL of MicroScint 20. After mixing, plates are counted by liquid scintillation. Counts present in the supernatant for blanks (wells containing only HDL acceptor, CETP buffer and DMSO) are subtracted from those containing test compounds and used to correct for non-specific transfer.
Comparison of the counts of samples with inhibitors to an uninhibited (DMSO only) positive control yield a percent inhibition. A plot of percent inhibition vs. log of inhibitor concentration, fit to a Sigmoidal 4 parameter equation is used to calculate IC50.

Compared with `COc1ccc(Cl)cc1-c1ccc(N2CCC2)nc1CN1C(=O)O[C@H](c2cc(C(F)(F)F)cc(C(F)(F)F)c2)[C@@H]1C` [Example 27, (4S,5R)-3-{[6-azetidin-1-yl-3-(5-chloro-2-methoxyphenyl)pyridin-2-yl]methyl}-5-[3,5-bis(trifluoromethyl)phenyl]-4-methyl-1,3-oxazolidin-2-one], `COc1ccc(CCC(=O)O)cc1-c1ccc(N2CCC2)nc1CN1C(=O)O[C@H](c2cc(C(F)(F)F)cc(C(F)(F)F)c2)[C@@H]1C` [Example 60, 3-{3-[6-Azetidin-1-yl-2-({(4S,5R)-5-[3,5-bis(trifluoromethyl)phenyl]-4-methyl-2-oxo-1,3-oxazolidin-3-yl}methyl)pyridin-3-yl]-4-methoxyphenyl}propanoic acid] is 3.7-fold higher in IC50: 3 nM for the first, 11 nM for the second.

Going from `COC(=O)c1cc(-c2ccc(OC)c(-c3ccc(N4CCC4)nc3CN3C(=O)O[C@H](c4cc(C(F)(F)F)cc(C(F)(F)F)c4)[C@@H]3C)c2)no1` [Example 28] to `COC(=O)c1ccc(-c2ccc(OC)c(-c3ccc(N4CCC4)nc3CN3C(=O)O[C@H](c4cc(C(F)(F)F)cc(C(F)(F)F)c4)[C@@H]3C)c2)o1` [Example 47, Methyl 5-{3-[6-azetidin-1-yl-2-({(4S,5R)-5-[3,5-bis(trifluoromethyl)phenyl]-4-methyl-2-oxo-1,3-oxazolidin-3-yl}methyl)pyridin-3-yl]-4-methoxyphenyl}-2-furoate], the IC50 falls from 80 nM to 34 nM (2.4-fold).

`COC(=O)c1c(C)c(-c2ccc(OC)c(-c3ccc(N4CCC4)nc3CN3C(=O)O[C@H](c4cc(C(F)(F)F)cc(C(F)(F)F)c4)[C@@H]3C)c2)nn1C` [Example 29] and `COC(=O)c1sc(-c2ccc(OC)c(-c3ccc(N4CCC4)nc3CN3C(=O)O[C@H](c4cc(C(F)(F)F)cc(C(F)(F)F)c4)[C@@H]3C)c2)c(C)c1C` [Example 52] are within 1.5-fold of each other in IC50: 14 nM for the first, 15 nM for the second.

Compared with `COC(=O)c1cnc(-c2ccc(OC)c(-c3ccc(N4CCC4)nc3CN3C(=O)O[C@H](c4cc(C(F)(F)F)cc(C(F)(F)F)c4)[C@@H]3C)c2)cn1` [Example 30], `COC(=O)c1ccc(-c2ccc(OC)c(-c3ccc(N4CCC4)nc3CN3C(=O)O[C@H](c4cc(C(F)(F)F)cc(C(F)(F)F)c4)[C@@H]3C)c2)cn1` [Example 58] is 4.6-fold lower in IC50: 133 nM for the first, 29 nM for the second. The second is the more potent here.

`COC(=O)CCc1ccc(OC)c(-c2ccc(N3CCC3)nc2CN2C(=O)O[C@H](c3cc(F)c(F)c(F)c3)[C@@H]2C)c1` [Example 31] and `COC(=O)CC(C)(C)c1ccc(OC)c(-c2ccc(N3CCC3)nc2CN2C(=O)O[C@H](c3cc(F)c(F)c(F)c3)[C@@H]2C)c1` [Example 32] are within 1.5-fold of each other in IC50: 97 nM for the first, 107 nM for the second.

First: COc1ccc([C@H]2CC[C@H](C(=O)OC)CC2)cc1-c1ccc(N2CCC2)nc1CN1C(=O)O[C@H](c2cc(F)c(F)c(F)c2)[C@@H]1C [Example 35]
Second: COC(=O)c1ccc(-c2cc(-c3ccc(N4CCC4)nc3CN3C(=O)O[C@H](c4cc(F)c(F)c(F)c4)[C@@H]3C)c(OC)cc2F)c(C)c1 [Example 36]
The IC50 of the first is 17-fold higher: 439 nM for the first, 26 nM for the second.

Going from `COc1cc(F)c([C@H]2C[C@@H](C(=O)OC)C2)cc1-c1ccc(N2CCC2)nc1CN1C(=O)O[C@H](c2cc(C(F)(F)F)cc(C(F)(F)F)c2)[C@@H]1C` [Example 37] to `COc1cc(F)c([C@H]2C[C@H](C(=O)OC)C2)cc1-c1ccc(N2CCC2)nc1CN1C(=O)O[C@H](c2cc(C(F)(F)F)cc(C(F)(F)F)c2)[C@@H]1C` [Example 38], the IC50 falls from 17 nM to 5 nM (3.4-fold).

Going from `COC(=O)Cc1ccc(OC)c(-c2c(C)cc(N3CCC3)nc2CN2C(=O)O[C@H](c3cc(C(F)(F)F)cc(C(F)(F)F)c3)[C@@H]2C)c1` [Example 40] to `COc1ccc(CCC(=O)O)cc1-c1c(C)cc(N2CCC2)nc1CN1C(=O)O[C@H](c2cc(C(F)(F)F)cc(C(F)(F)F)c2)[C@@H]1C` [Example 61, 3-{3-[6-Azetidin-1-yl-2-({(4S,5R)-5-[3,5-bis(trifluoromethyl)phenyl]-4-methyl-2-oxo-1,3-oxazolidin-3-yl}methyl)-4-methylpyridin-3-yl]-4-methoxyphenyl}propanoic acid], the IC50 rises from 3 nM to 5 nM (1.7-fold). The first is the more potent here.

`COC(=O)c1cc(C)c(-c2ccc(OC)c(-c3ccc(N4CCC4)nc3CN3C(=O)O[C@H](c4cc(C(F)(F)F)cc(C(F)(F)F)c4)[C@@H]3C)c2)s1` [Example 46, Methyl 5-{3-[6-azetidin-1-yl-2-({(4S,5R)-5-[3,5-bis(trifluoromethyl)phenyl]-4-methyl-2-oxo-1,3-oxazolidin-3-yl}methyl)pyridin-3-yl]-4-methoxyphenyl}-4-methylthiophene-2-carboxylate] and `COC(=O)c1cc(-c2ccc(OC)c(-c3ccc(N4CCC4)nc3CN3C(=O)O[C@H](c4cc(C(F)(F)F)cc(C(F)(F)F)c4)[C@@H]3C)c2)c(C)s1` [Example 51] are within 1.5-fold of each other in IC50: 10 nM for the first, 12 nM for the second.

Going from `COC(=O)c1ccc(-c2ccc(OC)c(-c3ccc(N4CCC4)nc3CN3C(=O)O[C@H](c4cc(C(F)(F)F)cc(C(F)(F)F)c4)[C@@H]3C)c2)s1` [Example 48] to `COC(=O)c1cc(-c2ccc(OC)c(-c3ccc(N4CCC4)nc3CN3C(=O)O[C@H](c4cc(C(F)(F)F)cc(C(F)(F)F)c4)[C@@H]3C)c2)cs1` [Example 49], the IC50 rises from 65 nM to 98 nM (1.5-fold).

First: COC(=O)c1scc(-c2ccc(OC)c(-c3cc(Br)c(N4CCC4)nc3CN3C(=O)O[C@H](c4cc(C(F)(F)F)cc(C(F)(F)F)c4)[C@@H]3C)c2)c1C [Example 50]
Second: COC(=O)c1coc(-c2ccc(OC)c(-c3ccc(N4CCC4)nc3CN3C(=O)O[C@H](c4cc(C(F)(F)F)cc(C(F)(F)F)c4)[C@@H]3C)c2)c1 [Example 53]
The IC50 of the first is 4.1-fold lower: 15 nM for the first, 61 nM for the second. The first is the more potent here.

First: CCOC(=O)c1csc(-c2ccc(OC)c(-c3ccc(N4CCC4)nc3CN3C(=O)O[C@H](c4cc(C(F)(F)F)cc(C(F)(F)F)c4)[C@@H]3C)c2)n1 [Example 54]
Second: CCOC(=O)c1cc(C)c(-c2ccc(OC)c(-c3ccc(N4CCC4)nc3CN3C(=O)O[C@H](c4cc(C(F)(F)F)cc(C(F)(F)F)c4)[C@@H]3C)c2)n1C [Example 56]
The IC50 of the first is 38-fold higher: 189 nM for the first, 5 nM for the second.

Compared with `CCOC(=O)c1c(C)c(-c2ccc(OC)c(-c3ccc(N4CCC4)nc3CN3C(=O)O[C@H](c4cc(C(F)(F)F)cc(C(F)(F)F)c4)[C@@H]3C)c2)c(C)n1C` [Example 57], `COC(=O)c1ccc(-c2ccc(OC)c(-c3ccc(N4CCC4)nc3CN3C(=O)O[C@H](c4cc(C(F)(F)F)cc(C(F)(F)F)c4)[C@@H]3C)c2)nc1` [Example 59] is 28-fold higher in IC50: 7 nM for the first, 195 nM for the second. The first is the more potent here.

First: COc1ccc(CCC(=O)O)cc1-c1ccc(N2CCCC2)nc1CN1C(=O)O[C@H](c2cc(C(F)(F)F)cc(C(F)(F)F)c2)[C@@H]1C [Example 62]
Second: COc1ccc(CCC(=O)O)cc1-c1ccc(N2CC(F)(F)C2)nc1CN1C(=O)O[C@H](c2cc(C(F)(F)F)cc(C(F)(F)F)c2)[C@@H]1C [Example 64]
The IC50 of the first is 3.8-fold higher: 49 nM for the first, 13 nM for the second.

Going from `COc1ccc(CCC(=O)O)cc1-c1c(C)cc(N2CC(F)(F)C2)nc1CN1C(=O)O[C@H](c2cc(C(F)(F)F)cc(C(F)(F)F)c2)[C@@H]1C` [Example 63] to `COc1cc(F)c(CCC(=O)O)cc1-c1ccc(N2CC(F)(F)C2)nc1CN1C(=O)O[C@H](c2cc(C(F)(F)F)cc(C(F)(F)F)c2)[C@@H]1C` [Example 65], the IC50 rises from 5 nM to 24 nM (4.8-fold). The first is the more potent here.

Going from `COc1ccc([C@@H]2C[C@H]2C(=O)O)cc1-c1ccc(N2CC(F)(F)C2)nc1CN1C(=O)O[C@H](c2cc(C(F)(F)F)cc(C(F)(F)F)c2)[C@@H]1C` [Example 66] to `COc1ccc([C@H]2C[C@@H]2C(=O)O)cc1-c1ccc(N2CC(F)(F)C2)nc1CN1C(=O)O[C@H](c2cc(C(F)(F)F)cc(C(F)(F)F)c2)[C@@H]1C` [Example 67], the IC50 rises from 8 nM to 14 nM (1.8-fold).

`COc1ccc([C@@H]2C[C@H]2C(=O)O)cc1-c1c(C)cc(N2CCC2)nc1CN1C(=O)O[C@H](c2cc(C(F)(F)F)cc(C(F)(F)F)c2)[C@@H]1C` [Example 68] and `COc1ccc([C@H]2C[C@@H]2C(=O)O)cc1-c1c(C)cc(N2CCC2)nc1CN1C(=O)O[C@H](c2cc(C(F)(F)F)cc(C(F)(F)F)c2)[C@@H]1C` [Example 71] are within 1.5-fold of each other in IC50: 4 nM for the first, 5 nM for the second.

`COc1cc(F)c(CCC(=O)O)cc1-c1c(C)cc(N2CCC2)nc1CN1C(=O)O[C@H](c2cc(C(F)(F)F)cc(C(F)(F)F)c2)[C@@H]1C` [Example 69] and `COc1ccc(CCC(=O)O)cc1-c1c(CN2C(=O)O[C@H](c3cc(C(F)(F)F)cc(C(F)(F)F)c3)[C@@H]2C)nc(N2CCC2)c(Br)c1C` [Example 70] are within 1.5-fold of each other in IC50: 5 nM for the first, 4 nM for the second.

`COc1ccc([C@@H]2C[C@H]2C(=O)O)cc1-c1ccc(N2CCC2)nc1CN1C(=O)O[C@H](c2cc(C(F)(F)F)cc(C(F)(F)F)c2)[C@@H]1C` [Example 72] showed an IC50 of 7 nM.
